Reference: patent publication EP4260858A1, “COMPOSITION COMPRISING PRIMIDONE AND PEG” (Christian-Albrechts-Universität zu Kiel, priority 2022, dated 2023)

What was measured:
NIH3T3 cells = experiment: TNFα + zVAD induced RIPK1-dependent necroptosis, FACS (7-AAD / Annexin V); assay type: cell-based
Method: (§1) The commercially available drug Necrostatin-1 (Nec-1s, 20 µM) acted as an internal control (inhibitor) of RIPK1-mediated cell death. All drugs were added 30 min before TNFα stimulation. RIPK1-mediated cell death was quantified by FACS analysis using 7-amino-actinomycin D and phosphatidylserine accessibility (Annexin V staining) as markers. […] The commercially available drug Necrostatin-1 (Nec-1s, 20 µM) acted as an internal control (inhibitor) of RIPK1-mediated cell death. All drugs were added 30 min before TNFα stimulation. RIPK1-mediated cell death was quantified by FACS analysis using 7-amino-actinomycin D and phosphatidylserine accessibility (Annexin V staining) as markers. […] All drugs were added 30 min before TNFα stimulation. […] All drugs were added 30 min before TNFα stimulation. Necroptotic cell death was quantified by FACS analysis using 7-amino-actinomycin D and phosphatidylserine accessibility (Annexin V staining) as markers.
(§2) The known RIPK1 kinase inhibitor Nec-1s was used as a control.
(§3) RIPK3-expressing NIH3T3 cells and L929 fibroblasts were obtained from the American Type Culture Collection (Manassas, VA, USA). Both cell lines were cultured in DMEM (Gibco, Thermo Fisher Scientific, Schwerte, Germany) supplemented with 10% (v/v) FCS (PAN-Biotech GmbH, Aidenbach, Germany), 100 U/ml penicillin, and 100 µg/ml streptomycin (both from Merck Millipore GmbH, Darmstadt, Germany). The cell lines were cultured in a humidified 5% CO2 atmosphere at 37°C. Negativity for mycoplasma was routinely checked using a MycoAlert Mycoplasma Detection Kit (Lonza, Cologne, Germany). Unless stated otherwise, assays were conducted using 1x 10^5 cells in 1 ml of medium.
(§4) Recombinant purified TNFα (# 570104) was purchased from BioLegend (Amsterdam, the Netherlands). The pan-caspase inhibitor zVAD-fmk (# 4026865) was purchased from Bachem (Weil am Rhein, Germany), Nec-1s (2263-1-BV) was obtained from BioCat (Heidelberg, Germany); primidone (# P7295) was purchased from Sigma-Aldrich Chemie GmbH (Taufkirchen, Germany). Polyethylenglycol (PEG300, # 202371) was purchased from Merck Millipore, Dimethyl sulfoxide (DMSO, A3672) was obtained from AppliChem (via Thermo Fisher Scientific).
(§5) For testing the ability of primidone to protect against RIPK1-driven cell death, cells were kept in 1 ml medium. To test 1 mM, 0.75 mM and 0.5 mM primidone in PEG300, we pipetted 15.6 µl, 11.7 µl and 7.8 µl, respectively, of the 64.144 mM stock solution to the 1 ml of the medium that contains the cells. […]
(§6) Phosphatidylserine exposure to the outer cell membrane of apoptotic cells or inner plasma membrane of necrotic cells and incorporation of 7-amino-actinomycin D (7-AAD) into necrotic cells was quantified by flow cytometry analysis. […]

L929 fibroblasts = experiment: as above; assay type: cell-based
Method: as §1, §2, §3, §4, §5, §6

RIPK1 = target: T1, RIPK1 (Homo sapiens, UniProt Q13546); conditions: background statement, WO 2021/048162 A1; cited from earlier work
T1 sequence (Q13546 1-671): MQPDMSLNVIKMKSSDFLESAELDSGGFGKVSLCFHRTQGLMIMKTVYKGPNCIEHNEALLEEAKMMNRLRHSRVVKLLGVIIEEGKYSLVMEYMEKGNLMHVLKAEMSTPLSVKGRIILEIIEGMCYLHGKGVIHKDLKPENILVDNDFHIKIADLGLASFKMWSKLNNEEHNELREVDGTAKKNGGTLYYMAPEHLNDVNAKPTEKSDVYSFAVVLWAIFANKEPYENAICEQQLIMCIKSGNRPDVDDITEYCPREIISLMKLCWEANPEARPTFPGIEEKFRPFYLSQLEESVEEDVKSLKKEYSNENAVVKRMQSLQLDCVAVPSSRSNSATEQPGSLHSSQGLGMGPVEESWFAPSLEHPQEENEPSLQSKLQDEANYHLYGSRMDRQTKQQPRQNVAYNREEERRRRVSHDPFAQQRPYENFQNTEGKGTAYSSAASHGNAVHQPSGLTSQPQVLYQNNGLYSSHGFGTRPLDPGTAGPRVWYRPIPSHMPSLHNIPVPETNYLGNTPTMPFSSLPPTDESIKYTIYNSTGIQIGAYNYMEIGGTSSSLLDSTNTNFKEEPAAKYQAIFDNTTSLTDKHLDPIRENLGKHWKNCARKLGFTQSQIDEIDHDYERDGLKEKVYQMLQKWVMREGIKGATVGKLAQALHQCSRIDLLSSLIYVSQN

[1] = cited from earlier work
[2] = primidone solubilized in PEG300, control Nec-1s 20 µM

CCC1(c2ccccc2)C(=O)NCNC1=O [primidone, 5-Ethyl-5-phenyl-1,3-diazinane-4,6-dione]
protection from RIPK1-mediated necroptosis (NIH3T3 cells; 100 ng/ml TNFα + 25 µM zVAD, 24 h, 37°C, equimolar primidone (0.5-1 mM) dissolved in DMSO or PEG300, added 30 min before TNFα): able to protect
protective effects compared with Nec-1s (NIH3T3 cells; [2]): as strong as those observed for Nec-1s
protection from RIPK1-mediated necroptosis (L929 fibroblasts; 10 ng/ml TNFα + 25 µM zVAD, 24 h, 37°C, equimolar primidone (0.5-1 mM) dissolved in DMSO or PEG300, added 30 min before TNFα): able to protect
protective effects compared with Nec-1s (L929 fibroblasts; [2]): as strong as those observed for Nec-1s
activation of RIPK1 by phosphorylation or autophosphorylation (RIPK1): prevents the activation of RIPK1
soluble in dimethyl sulfoxide (DMSO) in amounts of up to ([1]; DMSO): up to 44 mg/ml
soluble in ethanol up to a concentration ([1]; ethanol): about 3 mg/ml
soluble in water up to a concentration ([1]; water): about 0.5 mg/ml
